pEC50: −log10 of the molar value.
What was measured:
ACKR3 [1] = tested on: ACKR3; design: method as in PMID 27875312; conditions: BRET-based assay; CXCL12 versus CXCL11; ref [30]; cited from earlier work
ACKR3 [2] = assay: β-arrestin 2 recruitment assay (PRESTO-Tango) for ACKR3 co-expressed with pcDNA3 or HA-AVPR1A; format: cell-based, human; conditions: ACKR3-Tango/HA-AVPR1A versus ACKR3-Tango/pcDNA3; n = 3; figure 9e,f
Text: (§1) The human AVPR1A cDNA sequence was from the AVPR1A-TANGO plasmid (Addgene, plasmid #66225). The hRLuc cDNA was PCR-amplified from pIRES-Myc-hCXCR4-Rluc, which was generously provided by Dr Michel Bouvier, with primers carrying the AgeI and XbaI sites at either end, respectively, and ligated with the C-terminus of AVPR1A at the corresponding sites. Human CXCR4 and ACKR3 cDNAs were from the CXCR4-TANGO (Addgene, plasmid #66262) and the ACKR3-TANGO (Addgene, plasmid #66265) plasmids. The EYFP cDNA was PCR-amplified from pEYFP with primers harbouring AgeI and XbaI sites and ligated with the C-terminus of ACKR3. All plasmids were confirmed by sequencing.
(§2) hVSMCs (primary aortic smooth muscle cells, ATCC PCS-100-012), A7r5 cells (ATCC-CRL-1444) and HEK293T cells (ATCC-CRL-11268) were purchased from American Type Culture Collection. hVSMCs were cultured in vascular basal media (ATCC PCS-100-030) supplemented with the vascular smooth muscle growth kit (ATCC PCS-100-042), containing 100 U ml^−1 penicillin and 100 µg ml^−1 streptomycin. hVSMCs were used between passages 2–5. HEK293T and A7r5 cells were cultured in high-glucose Dulbecco's Modified Eagle's Medium containing 10 mg ml^−1 sodium pyruvate, 2 mM L-glutamine, 10% (vol/vol) FBS, 1× non-essential amino acids, 100 U ml^−1 penicillin and 100 µg ml^−1 streptomycin. The HTLA cell line, a HEK293 cell line stably expressing a tTA-dependent luciferase reporter and a β-arrestin 2–TEV fusion gene were generously provided by the laboratory of Dr Bryan Roth and maintained in high-glucose Dulbecco's Modified Eagle's Medium supplemented with 10% (vol/vol) FBS, 1× non-essential amino acids, 100 U ml^−1 penicillin, 100 µg ml^−1 streptomycin, 50 µg ml^−1 hygromycin B and 2 µg ml^−1 puromycin. All cells were cultured in a humidified environment at 37°C, 5% CO2.
The PRESTO-Tango (parallel receptorome expression and screening via transcriptional output, with transcriptional activation following arrestin translocation) assay was performed as recently described. The Tango plasmids were a gift from Dr Bryan Roth (all from Addgene). HTLA cells (2.5 × 10^5 per well) were seeded in a six-well plate and transfected with 1.5 µg of the Tango plasmids using Lipofectamine 3000 (ThermoScientific). The following day, transfected HTLA cells (1 × 10^5 cells per well) were plated onto poly-L-lysine precoated 96-well microplates and allowed to attach to the plate surface for at least 4 h prior to treatment. Proteins used for treatment were prepared in twice the final concentration in culture media, added at a 1 : 1 vol/vol ratio and incubated overnight at 37°C, 5% CO2 in a humidified environment. The following morning, media were removed from cell culture plates and replaced with a 100 µl 1 : 5 mixture of Bright-Glo (Promega) and 1× HBSS, 20 mM HEPES solution. Plates were then incubated at room temperature before measuring luminescence on a Biotek Synergy II plate reader.

AVPR1A [3] = target: T1, AVPR1A (Homo sapiens, UniProt P37288); assay: β-arrestin 2 recruitment assay (PRESTO-Tango) for AVPR1A co-expressed with HA-ACKR3; format: cell-based; design: FLAG (N); Tango module (C-terminal fusion of the PRESTO-Tango plasmid); ACKR3 cDNA from plasmid #66265; host or cells: HTLA cells (HEK293 line with tTA-dependent luciferase reporter and β-arrestin 2–TEV fusion); conditions: n = 3, figure 9c
Text: as §1
(§3) hVSMCs (primary aortic smooth muscle cells, ATCC PCS-100-012), A7r5 cells (ATCC-CRL-1444) and HEK293T cells (ATCC-CRL-11268) were purchased from American Type Culture Collection. hVSMCs were cultured in vascular basal media (ATCC PCS-100-030) supplemented with the vascular smooth muscle growth kit (ATCC PCS-100-042), containing 100 U ml^−1 penicillin and 100 µg ml^−1 streptomycin. hVSMCs were used between passages 2–5. HEK293T and A7r5 cells were cultured in high-glucose Dulbecco's Modified Eagle's Medium containing 10 mg ml^−1 sodium pyruvate, 2 mM L-glutamine, 10% (vol/vol) FBS, 1× non-essential amino acids, 100 U ml^−1 penicillin and 100 µg ml^−1 streptomycin. […]
Target sequence in this assay (P37288 whole entry, the tested form may be a part): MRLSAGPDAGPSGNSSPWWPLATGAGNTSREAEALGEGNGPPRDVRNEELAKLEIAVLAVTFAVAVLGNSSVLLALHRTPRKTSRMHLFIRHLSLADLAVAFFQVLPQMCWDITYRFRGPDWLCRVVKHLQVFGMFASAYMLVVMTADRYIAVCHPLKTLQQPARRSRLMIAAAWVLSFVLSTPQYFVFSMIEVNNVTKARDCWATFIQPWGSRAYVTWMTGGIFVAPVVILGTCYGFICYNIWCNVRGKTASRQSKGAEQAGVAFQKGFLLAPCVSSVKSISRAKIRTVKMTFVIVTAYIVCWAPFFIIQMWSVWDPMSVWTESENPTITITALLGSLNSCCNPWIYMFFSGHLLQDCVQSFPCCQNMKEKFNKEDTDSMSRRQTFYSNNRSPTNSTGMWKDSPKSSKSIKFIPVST
Target sequence in this assay (P25106 whole entry partner, the tested form may be a part): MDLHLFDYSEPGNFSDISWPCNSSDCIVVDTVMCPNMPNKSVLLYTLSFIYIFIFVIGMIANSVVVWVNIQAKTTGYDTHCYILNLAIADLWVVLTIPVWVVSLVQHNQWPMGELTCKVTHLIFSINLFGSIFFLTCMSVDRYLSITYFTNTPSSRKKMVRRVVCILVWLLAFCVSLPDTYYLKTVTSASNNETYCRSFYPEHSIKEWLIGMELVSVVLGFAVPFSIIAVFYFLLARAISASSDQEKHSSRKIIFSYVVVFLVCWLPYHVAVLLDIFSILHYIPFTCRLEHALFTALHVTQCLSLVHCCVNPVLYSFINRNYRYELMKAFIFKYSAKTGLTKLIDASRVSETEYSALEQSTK

ACKR3 [4] = assay: β-arrestin 2 recruitment assay (PRESTO-Tango) for ACKR3; format: cell-based, human
Text: as §1
as §2, with “All cells were cultured in a humidified environment at 37°C, 5% CO2.” left out
The PRESTO-Tango (parallel receptorome expression and screening via transcriptional output, with transcriptional activation following arrestin translocation) assay was performed as recently described. […] Plates were then incubated at room temperature before measuring luminescence on a Biotek Synergy II plate reader.

[5] = tested on: rat mesenteric arteries (aVP-induced vasoconstriction); assay: Pressure myography, aVP-preconstricted isolated rat mesenteric arteries; conditions: 10 µM ligand
Method: (§5) (a,b) Pressure myography with rat mesenteric arteries. […] (d) Pressure myography experiments as in (a); PE-induced vasoconstriction. All ACKR3 ligands were tested at a concentration of 10 µM. […] All ACKR3 ligands were tested at a concentration of 10 µM.
(§6) Pressure myography was performed as described in detail previously with slight modifications [7, 63]. Male Sprague–Dawley rats (Harlan) were anaesthetized with 3.5% isoflurane. The mesentery was immediately removed and placed in 130 mM NaCl, 4.7 mM KCl, 1.18 mM KH2PO4, 1.17 mM MgSO4, 14.9 mM NaHCO3, 5.5 mM D-glucose, 0.026 mM EDTA and 1.16 mM CaCl2 aerated with 95% O2, 5% CO2 at 37°C. The animal was then euthanized by cardiectomy and bilateral decompression of the lungs. Third- or fourth-order mesenteric arteries were dissected free from the mesentery, mounted onto two glass cannulae with United States Pharmacopeia (USP) scale 11-0 sutures and pressurized to 80 mmHg in a DMT 110P pressure myograph system (DMT-USA). The intraluminal solution and the vessel bath solution were the same as described before. The vessel bath solution was continuously aerated with 95% O2, 5% CO2 throughout the experiment.

[6] = tested on: rat mesenteric arteries (PE-induced vasoconstriction); assay: Pressure myography, PE-preconstricted isolated rat mesenteric arteries; conditions: 10 µM ligand; for effect on PE-induced vasoconstriction, comparison of ACKR3 ligands: 2 µM PE, figure 1d, vehicle n = 5, CXCL11 n = 7, CXCL11 (3–73) n = 9, CXCL12 n = 14, p < 0.05 vehicle versus CXCL11 and CXCL12, p > 0.05 CXCL11 versus CXCL12; for effect on PE-induced vasoconstriction (outer diameter % change): arteries at 80 mmHg preconstricted with 2 µM PE, figure 1a, vehicle n = 4, CXCL11 n = 6, ubiquitin n = 7, *p < 0.05 versus vehicle
Method: as §5, §6

[7] = tested on: aVP-induced IP3 production in hVSMC; assay: IP3 production (ELISA) in hVSMC upon aVP stimulation; format: cell-based, human; conditions: ACKR3 ligands 1 µM, 15 min, then 1 µM aVP for 5 min; n = 4; figure 1f; *p < 0.05 versus vehicle-treated cells
Method: as §2
ACKR3 and CXCR4 siRNA gene silencing was performed as described previously. In brief, cells were grown in 2 ml Accell siRNA delivery media per well (Dharmacon) in six-well plates (Nunc). Commercially available Accell ACKR3 and CXCR4 siRNA were reconstituted with 1× siRNA buffer to a stock concentration of 100 µM. Cells were then transfected with 1 µM ACKR3/CXCR4 siRNA and incubated for 72 h at 37°C, 5% CO2. Accell NT-siRNA pool was used as a negative control. After 72 h, cells were assayed for receptor cell surface expression and used for signalling experiments.
IP3 enzyme-linked immunosorbent assays were purchased from LS Bio and performed as per the manufacturer's protocol (LS BIO F10644). In brief, hVSMCs were grown to confluency in six-well dishes (Nunc) and then treated as described in the Results section. Cells were then washed once with cold PBS, 225 µl of cold PBS was added to each well and cells were lysed by ultrasonication. The cell lysate was centrifuged for 10 min at 4°C at 1500g to remove cellular debris. The total protein concentration in the supernatant was determined with the Bio-Rad DC Protein Assay as per the manufacturer's protocol (Bio-Rad 500-0116). Equivalent amounts of total protein were added to the ELISA strips diluted in the provided sample diluent (1 : 5 and 1 : 10). The assay was then completed as per the manufacturer's protocol. Optical densities were read on a Biotek Synergy II microplate reader (absorbance at 450 nm), and IP3 concentrations were extrapolated from the standard curve.

AVPR1A [8] = target: T1, AVPR1A; assay: β-arrestin 2 recruitment assay (PRESTO-Tango) for AVPR1A without ACKR3 co-expression; format: cell-based; design: FLAG (N); Tango module (C-terminal fusion of the PRESTO-Tango plasmid); host or cells: HTLA cells (HEK293 line with tTA-dependent luciferase reporter and β-arrestin 2–TEV fusion); conditions: AVPR1A-Tango/pcDNA3; n = 3; figure 9c
Text: as §1, §3
Target sequence in this assay (P37288 whole entry, the tested form may be a part): as the sequence (P37288 whole entry, the tested form may be a part) above

ACKR3 [9] = assay: Receptor internalization by flow cytometry, ACKR3; format: cell-based, human; conditions: hVSMC, 1 µM agonist, up to 60 min; n = 3; figure 10c
Method: (§4) The cells were washed once with ice cold DPBS, blocked and stained with rabbit anti-AVPR1A (Bioss BS-11598R) and mouse anti-ACKR3 (R&D MAB42273) antibodies at 1 : 200 dilution for 1 h on ice. Cells were then washed twice with FACS wash buffer (1× PBS, 2% FBS and 0.01% NaN3), and secondary antibodies were added at a 1 : 500 dilution and incubated for 30 min on ice (donkey anti-rabbit Alexa Fluor 647, Invitrogen A-31573 and donkey anti-mouse Alexa Fluor 488, Invitrogen A-21202). Cells were washed twice with FACS wash buffer and then fixed with 4% paraformaldehyde at room temperature for 15 min. After two additional washes, the cells were counted on a BD FACS Canto II (BD Biosciences) flow cytometer. The fluorescence intensities of at least 3 × 10^4 cells were recorded and analysed using the FlowJo software (Tree Star).

AVPR1A [10] = assay: Receptor internalization by flow cytometry, AVPR1A; format: cell-based, human; conditions: hVSMC, 1 µM agonist, up to 60 min; n = 3; figure 10b
Method: as §4

ACKR3 [11] = tested on: ACKR3; design: method as in 2 sources, one per row (each row's own in cited_ref): ref [29]–[32] = [29]; PMID 16940167; doi:10.1084/jem.20052144; 29 Burns JM et al. 2006 A novel chemokine receptor for SDF-1 and I-TAC involved in cell survival, cell adhesion, and tumor development . J. Exp. Med. 203 , 2201 – 2213 . ( doi:10.1084/jem.20052144 ) 1 || [30]; PMID 27875312; doi:10.1074/jbc.M116.762252; 30 Benredjem B , Girard M , Rhainds D , St-Onge G , Heveker N 2017 Mutational analysis of atypical chemokine receptor 3 (ACKR3/CXCR7) interaction with its chemokine ligands CXCL11 and CXCL12 . J. Biol || [31]; PMID 9918548; 31 Gifford AN , Bruneus M , Gatley SJ , Lan R , Makriyannis A , Volkow ND 1999 Large receptor reserve for cannabinoid actions in the central nervous system . J. Pharmacol. Exp. Ther. 288 , 478 – 483 . || [32]; PMID 8779988; doi:10.1152/ajplung.1996.270.2.L199; 32 Ethier MF , Schaefer OP , Samant N , Yamaguchi H , Madison JM 1996 Muscarinic receptor reserve for inhibition of cAMP accumulation in bovine trachealis cells . Am. J. Physiol. 270 , L199 – L207 . 8 ||| ref [24] = [24]; PMID 21757744; doi:10.1074/jbc.M111.233742; 24 Saini V , Staren DM , Ziarek JJ , Nashaat ZN , Campbell EM , Volkman BF , Marchese A , Majetschak M 2011 The CXC chemokine receptor 4 ligands ubiquitin and stromal cell-derived factor-1alpha functi; conditions: ref [24]; cited from earlier work

Substance	potency to induce β-arrestin recruitment to ACKR3, fold higher than CXCL11 (ACKR3 [1])	effect of AVPR1A co-expression on efficacy to recruit β-arrestin 2 to ACKR3-Tango (ACKR3 [2])	effect of AVPR1A co-expression on potency to recruit β-arrestin 2 to ACKR3-Tango (ACKR3 [2])	β-arrestin 2 recruitment to AVPR1A-Tango by chemokines, presence of ACKR3 (AVPR1A [3])	potency to recruit β-arrestin 2 to ACKR3, fold higher than CXCL11 (ACKR3 [4]; CXCL12 versus CXCL11, p < 0.01)	efficacy for β-arrestin 2 recruitment to ACKR3 (in words) (ACKR3 [4]; HTLA cells, n = 3, CXCL11 versus CXCL12)	pEC50 (ACKR3 [4]; HTLA cells, overnight at 37°C, luminescence, n = 3 independent experiments, 95% confidence interval in brackets, read-out: EC50 (95% CI) β-arrestin 2 recruitment to ACKR3)	effect on aVP-induced vasoconstriction, comparison of ACKR3 ligands ([5]; 0.5 nM aVP, figure 1e, vehicle n = 4, CXCL11 n = 3, CXCL11 (3–73) n = 3, CXCL12 n = 3, p < 0.05 vehicle versus CXCL11 and CXCL12, p > 0.05 CXCL11 versus CXCL12)	effect on PE-induced vasoconstriction, comparison of ACKR3 ligands [6]	effect of ACKR3 ligand pretreatment on aVP-induced IP3 production [7]	β-arrestin 2 recruitment to AVPR1A-Tango by chemokines, absence of ACKR3 (AVPR1A [8])	ACKR3 cell surface expression after agonist (ACKR3 [9])	effect on PE-induced vasoconstriction (outer diameter % change) [6]	AVPR1A cell surface expression after agonist (AVPR1A [10])	effect on aVP-induced vasoconstriction (outer diameter % change) ([5]; arteries at 80 mmHg preconstricted with 0.5 nM aVP, figure 1b, *p < 0.05 versus vehicle)	binding to ACKR3 (ACKR3 [11])
C-X-C chemokine ligand 12 [CXCL12]	twofold higher	significantly reduced the efficacy	without affecting the potency	did not induce β-arrestin 2 recruitment to AVPR1A-Tango	2.2 -fold	comparable efficacy	8.89	attenuated PE- and aVP-induced vasoconstriction to a similar degree	attenuated PE- and aVP-induced vasoconstriction to a similar degree	inhibited aVP-induced IP3 production	did not induce β-arrestin 2 recruitment to AVPR1A-Tango					
CXCL11: ACKR3 and CXCR3 agonist, from Protein Foundry		significantly reduced the efficacy	without affecting the potency	did not induce β-arrestin 2 recruitment to AVPR1A-Tango					attenuated PE- and aVP-induced vasoconstriction to a similar degree			time-dependently reduced expression levels of both AVPR1A and ACKR3	antagonized PE-induced vasoconstriction	time-dependently reduced expression levels of both AVPR1A and ACKR3		
ubiquitin													enhanced PE-induced vasoconstriction		did not affect aVP-induced vasoconstriction	does not bind to ACKR3

— PMC5795052 (Open Biology, 2018)
